As a reminder, the IC50 is the concentration that inhibits the measured activity by half. As usually defined, the inhibition is how much of the control response was suppressed.

These results are taken from article PMC8840612, “Inhibition of α-Glucosidase, Acetylcholinesterase, and Nitric Oxide Production by Phytochemicals Isolated from Millettia speciosa—In Vitro and Molecular Docking Studies” (Plants, 2022).

Converted amounts (≈) assume the structure as drawn. Read-outs that look alike come from different tables or passages of the source.

Data set [1] deals with NO production in lipopolysaccharide (LPS)-stimulated RAW 264.7 cells. Put plainly: Inhibition of NO production in LPS-stimulated RAW 264.7 cells (Griess assay). It is filed as cell-based. Conditions: for IC50 / inhibition at 500 µg/mL: Mus musculus; for IC50: RAW264.7, LPS-stimulated RAW 264.7 cells; for IC50 / IC50 for the inhibition of NO production: tested 0.8–500 µg/mL, mean of three replicates ± SD; for inhibition at 500 µg/mL: RAW264.7; for inhibition at 500 µg/mL / IC50 for the inhibition of NO production: LPS-stimulated RAW 264.7 cells. The method, then: It was supplemented with 10% fetal bovine serum (FBS) and incubated at 37 °C in humidified air with 5% CO2. […] Next, 100 μL of Griess reagent (50 μL of 1% (w/v) sulfanilamide in 5% (v/v) phosphoric acid and 50 μL of 0.1% (w/v) N-1-naphthylethylenediamine dihydrochloride) was added, and it was incubated at room temperature for about 10 min. The Griess Reagent System from Promega Cooperation (USA) was used to determine the presence of nitrite. The microplate reader was used to assess absorption at 540 nm. N^G-Methyl-L-arginine acetate (L-NMMA) (Sigma) was used as a positive control at doses of […]. […] The experiments were repeated at least three times independently.

In data set [2] the target is acetylcholinesterase (AChE) (Homo sapiens, UniProt P22303). The data set can be described thus: biochemical. The method, then:
The acetylcholinesterase activity was determined by a colorimetric assay based on Ellman’s methodology. […] They were dissolved in DMSO and then diluted with buffer (50 mM of Tris-HCl, with a pH of 8 containing 0.1 M NaCl), 0.1% bovine serum albumin (BSA), 25 µL of acetylthiocholine iodide. The plate was incubated at 25 °C for 15 min. […] Each assay was done in triplicate. The percentage of inhibition of AChE was determined by the following formula: Inhibition (%) = [(OD of control − OD of sample)/OD of control] × 100.

Data set [3] concerns the target α-glucosidase from Saccharomyces cerevisiae (Saccharomyces cerevisiae, UniProt P53341). Put plainly: In vitro α-glucosidase inhibition (p-NPG substrate).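 For all read-outs here: yeast α-glucosidase at 0.2 U/mL with p-nitrophenyl α-D-glucopyranoside substrate in 100 mM potassium phosphate pH 6.8, product read by absorbance at 410 nm.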 Conditions: for IC50: IC50 for inhibition of α-glucosidase, tested 1–256 µg/mL, mean of three replicates ± SD; for inhibition at 1 µg/mL / inhibition at 4 µg/mL / inhibition at 16 µg/mL / inhibition at 64 µg/mL / inhibition at 256 µg/mL: read-out: α-Glucosidase Inhibition (%).

In data set [4] the test system is RAW 264.7 cells. Put plainly: Cell viability (MTT) assay for cytotoxicity. Type of data set: cell-based. As for the experimental part: The cells were diluted to a suitable cell density. One hundred eighty microliters of the cells were added to each well of the plate and incubated at 37 °C, 5% CO2 for 72 h. After the incubation, 10 µL of MTT solution (5 mg/mL) was added. […] Cell viability was calculated based on the formula as follows:Cell viability (%) = [(OD Sample)/(OD Control)] × 100%, where OD is the optical density recorded at 540 nm.

Data set [5] concerns the target α-glucosidase. Conditions: cited from earlier work.
The test system of data set [6] is NO formation. On the set-up: method as in doi:10.20307/nps.2019.25.1.34. The note with it: at 40 µg/mL; ursolic acid isolated from Phryma leptostachya var. asiatica; cited from earlier work.
Data set [7] relates to NO production. The note with it: at a high concentration of 1000 µM; cited from earlier work.
[8] abbreviates: tested 1 to 256 µg/mL, triplicate, read-out: IC50 for acetylcholinesterase inhibition (converted).
Setting [9] is: cell viability assay, concentrations as in NO assay.

Sequence of α-glucosidase from Saccharomyces cerevisiae (P53341 whole entry): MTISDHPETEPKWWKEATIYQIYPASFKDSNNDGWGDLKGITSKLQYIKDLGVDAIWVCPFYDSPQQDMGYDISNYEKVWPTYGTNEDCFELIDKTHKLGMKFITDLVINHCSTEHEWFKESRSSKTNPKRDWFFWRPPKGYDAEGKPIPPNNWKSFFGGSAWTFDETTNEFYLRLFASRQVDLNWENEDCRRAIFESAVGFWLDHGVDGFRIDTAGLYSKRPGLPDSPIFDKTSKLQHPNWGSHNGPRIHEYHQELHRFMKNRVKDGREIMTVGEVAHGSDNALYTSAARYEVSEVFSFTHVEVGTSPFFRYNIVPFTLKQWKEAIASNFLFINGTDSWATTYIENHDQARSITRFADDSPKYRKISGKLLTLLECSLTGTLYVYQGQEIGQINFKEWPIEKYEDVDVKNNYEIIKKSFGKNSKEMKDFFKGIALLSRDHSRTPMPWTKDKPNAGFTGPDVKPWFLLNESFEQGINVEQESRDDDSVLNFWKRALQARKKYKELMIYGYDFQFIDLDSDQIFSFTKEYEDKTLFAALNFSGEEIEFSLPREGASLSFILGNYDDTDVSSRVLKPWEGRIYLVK
Sequence of acetylcholinesterase (AChE) (P22303 32-614): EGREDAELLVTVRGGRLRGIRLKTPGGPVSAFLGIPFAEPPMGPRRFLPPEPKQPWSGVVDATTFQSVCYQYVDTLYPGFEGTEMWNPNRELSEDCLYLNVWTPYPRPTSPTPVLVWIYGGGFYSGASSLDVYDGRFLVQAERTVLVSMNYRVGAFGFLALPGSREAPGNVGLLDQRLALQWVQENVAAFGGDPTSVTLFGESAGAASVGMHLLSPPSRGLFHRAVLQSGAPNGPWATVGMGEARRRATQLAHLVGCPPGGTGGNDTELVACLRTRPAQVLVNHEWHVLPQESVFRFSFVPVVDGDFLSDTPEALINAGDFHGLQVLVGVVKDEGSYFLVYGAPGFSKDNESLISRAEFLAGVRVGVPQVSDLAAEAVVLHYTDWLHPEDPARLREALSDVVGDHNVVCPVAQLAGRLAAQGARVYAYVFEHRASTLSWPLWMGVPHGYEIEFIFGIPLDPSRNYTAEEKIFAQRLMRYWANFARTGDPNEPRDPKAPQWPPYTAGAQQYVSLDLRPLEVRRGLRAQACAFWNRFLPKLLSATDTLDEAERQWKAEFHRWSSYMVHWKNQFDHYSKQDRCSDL

Turning to `C[C@H]1C(=O)CC[C@@H]2[C@]1(C)CC[C@H]1[C@@]2(C)CC[C@@]2(C)[C@@H]3CC(C)(C)CC[C@]3(C)CC[C@]12C` [Compound 1, friedelin], in data set [1], the IC50 was above 500 µg/mL and the inhibition at 500 µg/mL is 37.6%. The same compound registered an IC50 in data set [2] above 600 µM. In data set [3], the “Fold Change” value was below 0.663, the IC50 is above 600 µM, the inhibition at 1 µg/mL worked out at 1% and the inhibition at 4 µg/mL was 1%. Moreover, in data set [3], the inhibition at 16 µg/mL was determined as 13%, the inhibition at 64 µg/mL worked out at 20% and the inhibition at 256 µg/mL is 23%.

As for `C[C@@H]1CC[C@]2(C(=O)O)CC[C@]3(C)C(=CC[C@@H]4[C@@]5(C)CC[C@H](O)[C@@](C)(CO)[C@@H]5CC[C@]43C)[C@@H]2[C@]1(C)O` [Compound 2, rotundic acid], in data set [1], the “IC50 for the inhibition of NO production” value was determined as 241.3 ± 8.2 µg/mL and the IC50 was 241 µg/mL (≈ 494 µM). Besides, in data set [2] (setting [8]), the IC50 is above 524 µM. Further, in data set [3], the “Fold Change” value is below 0.663, the IC50 was above 524 µM, the inhibition at 1 µg/mL was 1% and the inhibition at 4 µg/mL is 1%. Further, in data set [3], the inhibition at 16 µg/mL was determined as 1%, the inhibition at 64 µg/mL is 4% and the inhibition at 256 µg/mL is 33%.

The compound `C[C@@H]1CC[C@]2(C(=O)O[C@@H]3O[C@H](CO)[C@@H](O)[C@H](O)[C@H]3O)CC[C@]3(C)C(=CC[C@@H]4[C@@]5(C)CC[C@H](O)[C@@](C)(CO)[C@@H]5CC[C@]43C)[C@@H]2[C@]1(C)O` [Compound 3, pedunculoside] displayed an IC50 in data set [1] of 273 ± 8.2 µg/mL (≈ 420 µM). The same compound came in with an IC50 in data set [2] above 393 µM. In addition, in data set [3], the “Fold Change” value came out at 0.918, half-maximal inhibition (IC50) required 284 µM, the inhibition at 1 µg/mL was found to be 1% and the inhibition at 4 µg/mL was determined as 3%. Besides, in data set [3], the inhibition at 16 µg/mL was 9.5%, the inhibition at 64 µg/mL is 32% and the inhibition at 256 µg/mL was found to be 60.5%. Moreover, the “Cytotoxicity against RAW 264.7 cells” value in data set [4] is reported as “without cytotoxicity”.

As for `C[C@H]1[C@H](C)CC[C@]2(CO)CC[C@]3(C)C(=CC[C@@H]4[C@@]5(C)CC[C@H](O)C(C)(C)[C@@H]5CC[C@]43C)[C@H]12` [Compound 4, uvaol], in data set [1], the “IC50 for the inhibition of NO production” value is reported as 246.5 ± 18.7 µg/mL and it took 246 µg/mL (≈ 557 µM) to reach half-maximal inhibition (IC50). Also, the “IC50 α-glucosidase” value in data set [5] (compounds isolated from Clinopodium taxifolium) is listed as 521.0 µg/mL (≈ 1180 µM). The compound also yielded an IC50 in data set [2] above 578 µM.

In data set [1], `C[C@H]1[C@H](C)CC[C@]2(C(=O)O)CC[C@]3(C)C(=CC[C@@H]4[C@@]5(C)CC[C@H](O)C(C)(C)[C@@H]5CC[C@]43C)[C@H]12` [Compound 5, ursolic acid] returned an IC50 of 43.9 ± 3.7 µg/mL (≈ 96.1 µM) and an inhibition at 500 µg/mL of 84%. Also, in data set [5], the “Manner of α-glucosidase inhibition” value is reported as “non-competitive”. The IC50 in data set [2] (setting [8]) is 17.5 µM. In data set [3], the IC50 is 2.41 µM, the inhibition at 1 µg/mL turned out to be 48.5%, the inhibition at 4 µg/mL was determined as 91.5% and the inhibition at 16 µg/mL is 95%. In data set [3], the inhibition at 64 µg/mL turned out to be 98% and the inhibition at 256 µg/mL is 99%. Further, the “Reduction of cell growth” value in data set [4] (at 100 µg/mL, RAW 264.7 cells, MTT) is 23.3%. For the same compound, the “Cytotoxicity against RAW 264.7 cells” value in data set [4] (setting [9]) is on record as “moderate cytotoxicity”. Further, in data set [6], the “Effect on NO formation” value is on record as 80.6%.

Consider `CC(C)=CCC[C@](C)(O[C@@H]1O[C@H](CO[C@@H]2O[C@H](CO)[C@@H](O)[C@H](O)[C@H]2O)[C@@H](O)[C@H](O)[C@H]1O)[C@H]1CC[C@]2(C)[C@@H]1[C@H](O)C[C@@H]1[C@@]3(C)CC[C@H](O[C@@H]4O[C@H](CO)[C@@H](O)[C@H](O)[C@H]4O)C(C)(C)[C@@H]3CC[C@]12C` [Compound 6, gypenoside XVII], for which, in data set [1], the IC50 amounted to 93.9 ± 5.4 µg/mL (≈ 99.1 µM). The same compound showed an IC50 in data set [2] above 270 µM. Besides, in data set [3], the “Fold Change” value is listed as below 0.663, the IC50 was above 270 µM, the inhibition at 1 µg/mL was 1% and the inhibition at 4 µg/mL turned out to be 5%. For the same compound, in data set [3], the inhibition at 16 µg/mL was determined as 17%, the inhibition at 64 µg/mL was 21% and the inhibition at 256 µg/mL was found to be 34%. In addition, in data set [4] (setting [9]), the “Cytotoxicity against RAW 264.7 cells” value is given as “no cytotoxicity”.

As to `COc1ccc2c(c1)OC[C@H]1c3cc4c(cc3O[C@@H]21)OCO4` [Compound 7, pterocarpin], half-maximal inhibition in data set [1] (IC50) was put at 229 ± 18.6 µg/mL (≈ 767 µM). In addition, the 50% inhibitory concentration (IC50) in data set [2] (setting [8]) was above 858 µM. Further, in data set [3], the “Fold Change” value was below 0.663, the half-inhibitory concentration (IC50) was above 858 µM, the inhibition at 1 µg/mL turned out to be 0% and the inhibition at 4 µg/mL is 3%. For the same compound, in data set [3], the inhibition at 16 µg/mL came to 3%, the inhibition at 64 µg/mL stood at 12% and the inhibition at 256 µg/mL turned out to be 25%.

Turning to `COc1cc(/C=C/CO)cc(OC)c1O[C@@H]1O[C@H](CO)[C@@H](O)[C@H](O)[C@H]1O` [Compound 8, syringin], the IC50 in data set [1] turned out to be 303 ± 11 µg/mL (≈ 814 µM). The IC50 in data set [2] is above 687 µM. Moreover, in data set [7], the “Blocking of NO production” value is reported as “not blocked”. Besides, in data set [3], the “Fold Change” value was below 0.663, the IC50 is above 687 µM, the inhibition at 1 µg/mL is 0% and the inhibition at 4 µg/mL turned out to be 1%. Also, in data set [3], the inhibition at 16 µg/mL was 8%, the inhibition at 64 µg/mL came out at 9% and the inhibition at 256 µg/mL is 12%.

In data set [1], `O=c1c(-c2ccc(O)cc2)coc2cc(O[C@@H]3O[C@H](CO)[C@@H](O)[C@H](O)[C@H]3O)ccc12` [Compound 9, daidzin] displayed a half-inhibitory concentration (IC50) above 500 µg/mL and an inhibition at 500 µg/mL of 39.5%. In data set [2], this compound displayed a 50% inhibitory concentration (IC50) above 615 µM. Moreover, in data set [3], the “Fold Change” value was below 0.663, the IC50 is above 615 µM, the inhibition at 1 µg/mL is 0% and the inhibition at 4 µg/mL amounted to 0%. In addition, in data set [3], the inhibition at 16 µg/mL was found to be 4%, the inhibition at 64 µg/mL was 10% and the inhibition at 256 µg/mL was 22%.

For `C[C@@H]1O[C@@H](OC[C@H]2O[C@@H](Oc3c(-c4ccc(O)c(O)c4)oc4cc(O)cc(O)c4c3=O)[C@H](O)[C@@H](O)[C@@H]2O)[C@H](O)[C@H](O)[C@H]1O` [Compound 10, rutin], 450 ± 5.2 µg/mL (≈ 736 µM) corresponded to half-maximal inhibition in data set [1] (IC50). The IC50 in data set [2] was 419 µM. In data set [3], it took 3.6 µM to reach half-maximal inhibition (IC50), the inhibition at 1 µg/mL was determined as 34.5%, the inhibition at 4 µg/mL is 74% and the inhibition at 16 µg/mL worked out at 78%. Moreover, in data set [3], the inhibition at 64 µg/mL was 82.5% and the inhibition at 256 µg/mL was found to be 85%.

In data set [1], `[H]/N=C(/NC)NCCC[C@H](N)C(=O)O` [L-NMMA, N^G-Methyl-L-arginine acetate, reference compound] yielded an IC50 of 8.6 µg/mL.

Take `C[C@H]1O[C@H](O[C@H]2[C@H](O)[C@@H](O)[C@@H](O[C@H]3[C@H](O)[C@@H](O)C(O)O[C@@H]3CO)O[C@@H]2CO)[C@H](O)[C@@H](O)[C@@H]1N[C@H]1C=C(CO)[C@@H](O)[C@H](O)[C@H]1O` (stereo partly shown) [acarbose, reference compound]: in data set [3], the inhibition at 1 µg/mL amounted to 0%, the inhibition at 4 µg/mL came to 5%, the inhibition at 16 µg/mL is 18% and the inhibition at 64 µg/mL is 23%. The inhibition at 256 µg/mL in data set [3] came to 72%.
